From ChEMBL document CHEMBL1201862, “PubChem BioAssay data set” (2004)
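Protocol summary: plate cells (96-well), add compound at 5 concentrations, incubate 48 h, interpolate endpoints linearly. GI50 = concentration required for 50% inhibition of growth.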 Activity calls are given as the source filed them. Rule as the data show it: active = GI50 up to about 1.1 µM and inactive = higher. Residues, ends and D or L forms follow the SMILES beside them. *: point of attachment. Pentanoyl = CCCCC(=O)*; Boc = CC(C)(C)OC(=O)*

How the values were obtained:
Test in all cases: inhibition of tumour cell growth, NCI panel, 48 h
T47D = test system: T47D
OVCAR-8 = test system: OVCAR-8
HCT-116 = test system: HCT-116
786-0 = test system: 786-0
MOLT-4 = test system: MOLT-4
MDA-MB-435 = test system: MDA-MB-435
LOX IMVI = test system: LOX IMVI
ACHN = test system: ACHN
EKVX = test system: EKVX
OVCAR-4 = test system: OVCAR-4
KM12 = test system: KM12
SF-268 = test system: SF-268
HOP-62 = test system: HOP-62
COLO 205 = test system: COLO 205
OVCAR-3 = test system: OVCAR-3
A549 = test system: A549
NCI-H460 = test system: NCI-H460
HT-29 = test system: HT-29
PC-3 = test system: PC-3
UO-31 = test system: UO-31

SMILES	GI50 (T47D)	GI50 (OVCAR-8)	GI50 (HCT-116)	GI50 (786-0)	GI50 (MOLT-4)	GI50 (MDA-MB-435)	GI50 (LOX IMVI)	GI50 (ACHN)	GI50 (EKVX)	GI50 (OVCAR-4)	GI50 (KM12)	GI50 (SF-268)	GI50 (HOP-62)	GI50 (COLO 205)	GI50 (OVCAR-3)	GI50 (A549)	GI50 (NCI-H460)	GI50 (HT-29)	GI50 (PC-3)	GI50 (UO-31)
CCOC(=O)CC1c2ccc(O)cc2OC(=O)C1c1ccc([N+](=O)[O-])cc1 (stereo unspecified)	15.8 µM (inactive)	29 µM (inactive)	22.5 µM (inactive)	41.3 µM (inactive)	22.8 µM (inactive)	25 µM (inactive)	40.7 µM (inactive)	25.2 µM (inactive)	39.7 µM (inactive)	27.7 µM (inactive)	34.3 µM (inactive)	40 µM (inactive)	20.2 µM (inactive)	15.7 µM (inactive)	28.8 µM (inactive)	27.5 µM (inactive)	31.3 µM (inactive)	35.2 µM (inactive)	22.5 µM (inactive)	–
Cc1c(C)c2c(c(N)c1C#N)C(=O)N(Nc1ccccc1)C2=O	9.95 µM (inactive)	33 µM (inactive)	> 100 µM (inactive)	51.9 µM (inactive)	92.7 µM (inactive)	72.8 µM (inactive)	3.51 µM (inactive)	60.1 µM (inactive)	43.9 µM (inactive)	33.4 µM (inactive)	36.1 µM (inactive)	40.8 µM (inactive)	–	> 100 µM (inactive)	52.2 µM (inactive)	74.3 µM (inactive)	60.8 µM (inactive)	–	57.3 µM (inactive)	78.5 µM (inactive)
Nc1cc([N+](=O)[O-])ccc1C(=O)N1CCC[C@H]1CO	90.4 µM (inactive)	> 100 µM (inactive)	> 100 µM (inactive)	> 100 µM (inactive)	> 100 µM (inactive)	> 100 µM (inactive)	> 100 µM (inactive)	> 100 µM (inactive)	> 100 µM (inactive)	> 100 µM (inactive)	> 100 µM (inactive)	> 100 µM (inactive)	–	> 100 µM (inactive)	–	> 100 µM (inactive)	> 100 µM (inactive)	> 100 µM (inactive)	> 100 µM (inactive)	> 100 µM (inactive)
COC(=O)C(C)Sc1nc2cc(Cl)ccc2s1 (stereo unspecified)	> 100 µM (inactive)	> 100 µM (inactive)	> 100 µM (inactive)	> 100 µM (inactive)	> 100 µM (inactive)	> 100 µM (inactive)	–	> 100 µM (inactive)	> 100 µM (inactive)	> 100 µM (inactive)	> 100 µM (inactive)	> 100 µM (inactive)	> 100 µM (inactive)	> 100 µM (inactive)	> 100 µM (inactive)	> 100 µM (inactive)	> 100 µM (inactive)	> 100 µM (inactive)	> 100 µM (inactive)	> 100 µM (inactive)
C=C(C)C1CC/C(C)=C/CC[C@]2(C)O[C@H]2CC/C(COC(C)=O)=C\[C@@H]1O (stereo partly specified)	> 50 µM (inactive)	> 50 µM (inactive)	> 50 µM (inactive)	> 50 µM (inactive)	16 µM (inactive)	22.7 µM (inactive)	–	> 50 µM (inactive)	> 50 µM (inactive)	> 50 µM (inactive)	> 50 µM (inactive)	> 50 µM (inactive)	28.8 µM (inactive)	17.9 µM (inactive)	> 50 µM (inactive)	> 50 µM (inactive)	25.1 µM (inactive)	> 50 µM (inactive)	22.4 µM (inactive)	> 50 µM (inactive)
Cc1ccc(-c2cc(-c3ccccc3)nc(N)n2)c(O)c1	> 100 µM (inactive)	62.4 µM (inactive)	5.48 µM (inactive)	> 58.1 µM (inactive)	3.52 µM (inactive)	2.86 µM (inactive)	–	> 100 µM (inactive)	–	> 100 µM (inactive)	7.46 µM (inactive)	> 100 µM (inactive)	27.6 µM (inactive)	> 100 µM (inactive)	> 59.2 µM (inactive)	> 90.4 µM (inactive)	> 27 µM (inactive)	> 100 µM (inactive)	> 32.9 µM (inactive)	> 100 µM (inactive)
Cc1ccc(C(=O)Cc2nc3ncccc3[nH]c2=O)cc1	45.5 µM (inactive)	23.6 µM (inactive)	30.5 µM (inactive)	22.5 µM (inactive)	70.3 µM (inactive)	18.7 µM (inactive)	–	25.7 µM (inactive)	33.2 µM (inactive)	25.7 µM (inactive)	43.4 µM (inactive)	41.6 µM (inactive)	26 µM (inactive)	58.9 µM (inactive)	40.1 µM (inactive)	12.8 µM (inactive)	45.4 µM (inactive)	59.6 µM (inactive)	43.9 µM (inactive)	32.1 µM (inactive)
CCC(NC1=NCCO1)c1cccs1 (stereo unspecified)	16.4 µM (inactive)	16.7 µM (inactive)	14.1 µM (inactive)	15.3 µM (inactive)	> 100 µM (inactive)	14.5 µM (inactive)	23.7 µM (inactive)	15.9 µM (inactive)	16.5 µM (inactive)	23.9 µM (inactive)	18 µM (inactive)	–	–	17.3 µM (inactive)	16.9 µM (inactive)	14.1 µM (inactive)	15.7 µM (inactive)	19.7 µM (inactive)	13.4 µM (inactive)	18.7 µM (inactive)
CC(=O)Nc1ncc2c(n1)-c1ccccc1OC2	> 100 µM (inactive)	> 100 µM (inactive)	> 100 µM (inactive)	65.9 µM (inactive)	> 100 µM (inactive)	> 100 µM (inactive)	> 100 µM (inactive)	54.3 µM (inactive)	> 100 µM (inactive)	> 100 µM (inactive)	> 100 µM (inactive)	80.7 µM (inactive)	–	> 100 µM (inactive)	> 100 µM (inactive)	> 100 µM (inactive)	> 100 µM (inactive)	> 100 µM (inactive)	> 100 µM (inactive)	> 100 µM (inactive)
N#C[BH2-][n+]1ccc(C(=O)NNCc2ccccc2)cc1	> 100 µM (inactive)	> 100 µM (inactive)	> 100 µM (inactive)	> 100 µM (inactive)	> 100 µM (inactive)	> 100 µM (inactive)	> 100 µM (inactive)	> 100 µM (inactive)	> 100 µM (inactive)	> 100 µM (inactive)	> 100 µM (inactive)	> 100 µM (inactive)	–	> 100 µM (inactive)	> 100 µM (inactive)	> 100 µM (inactive)	> 100 µM (inactive)	–	> 100 µM (inactive)	> 100 µM (inactive)
COc1ccc2oc(C(=O)N3CC(CCl)c4ccc([N+](=O)[O-])cc43)cc2c1 (stereo unspecified)	53.8 µM (inactive)	17.2 µM (inactive)	89.1 µM (inactive)	16.2 µM (inactive)	–	0.468 µM (active)	67 µM (inactive)	40.6 µM (inactive)	15.8 µM (inactive)	15.2 µM (inactive)	0.381 µM (active)	13.3 µM (inactive)	12.4 µM (inactive)	74.6 µM (inactive)	–	–	31.3 µM (inactive)	–	20.7 µM (inactive)	4.45 µM (inactive)
CCCCC(=O)Oc1ccc(CC(NC(=O)OC(C)(C)C)C(=O)NC(C)C(=O)NC(Cc2ccccc2)C(=O)NCC(N)=O)cc1 (stereo unspecified) (Boc-Y(Pentanoyl)AFG-NH2; configuration not given here)	27.4 µM (inactive)	16.8 µM (inactive)	21.4 µM (inactive)	43.6 µM (inactive)	24.3 µM (inactive)	20 µM (inactive)	16.1 µM (inactive)	> 100 µM (inactive)	–	74.1 µM (inactive)	23.7 µM (inactive)	31.6 µM (inactive)	17.3 µM (inactive)	19.6 µM (inactive)	20.4 µM (inactive)	> 100 µM (inactive)	31.7 µM (inactive)	19.4 µM (inactive)	43.9 µM (inactive)	> 100 µM (inactive)
CN(C)c1ccc(/C=C2\N=C(N/N=C/c3ccccc3)NC2=O)cc1	56.4 µM (inactive)	26.3 µM (inactive)	83.6 µM (inactive)	44.2 µM (inactive)	26.8 µM (inactive)	33 µM (inactive)	–	> 100 µM (inactive)	> 100 µM (inactive)	60.1 µM (inactive)	52.6 µM (inactive)	66.5 µM (inactive)	> 100 µM (inactive)	47.1 µM (inactive)	> 100 µM (inactive)	36.7 µM (inactive)	49.9 µM (inactive)	40.6 µM (inactive)	75.3 µM (inactive)	> 100 µM (inactive)
C(=N\c1ccc(-c2nc3ccccc3[nH]2)cc1)/c1ccco1	38.5 µM (inactive)	34.4 µM (inactive)	57.3 µM (inactive)	> 100 µM (inactive)	29.3 µM (inactive)	48.4 µM (inactive)	67 µM (inactive)	> 100 µM (inactive)	> 100 µM (inactive)	70 µM (inactive)	48.6 µM (inactive)	> 100 µM (inactive)	> 100 µM (inactive)	43.9 µM (inactive)	91.4 µM (inactive)	> 100 µM (inactive)	–	> 100 µM (inactive)	33.6 µM (inactive)	75.7 µM (inactive)
COC(=O)n1c(=O)nc2c3c(ncn21)Oc1c(c(-c2ccccc2)nn1-c1ccccc1)C3c1ccc(Cl)cc1 (stereo unspecified)	1.71 µM (inactive)	1.63 µM (inactive)	1.01 µM (active)	1.49 µM (inactive)	–	1.66 µM (inactive)	1.48 µM (inactive)	1.82 µM (inactive)	–	2.39 µM (inactive)	1.37 µM (inactive)	1.3 µM (inactive)	1.72 µM (inactive)	1.45 µM (inactive)	1.42 µM (inactive)	1.77 µM (inactive)	1.65 µM (inactive)	1.56 µM (inactive)	1.59 µM (inactive)	1.68 µM (inactive)
